Experimental findings from ChEMBL document CHEMBL4396863, “Amyloid-Binding Alcohol Dehydrogenase (ABAD) Inhibitors for the Treatment of Alzheimer's Disease” (J Med Chem, 2019) are described below.

pIC50: −log10 of the molar value.

Series [1] in a line: Inhibition of ABAD (unknown origin). On the set-up: species or system Homo sapiens.
The subject of series [2] is HEK293. The experiment in a line: Displacement of radiolabeled estradiol ABAD (unknown origin) transfected in HEK293 cells at 100 uM relative to control. The format is cell-based. To be noted: Homo sapiens.
Series [3] has as its system HEK293. The experiment in a line: Displacement of radiolabeled estradiol ABAD (unknown origin) transfected in HEK293 cells at 300 uM relative to control. The format is cell-based. To be noted: Homo sapiens.
The nature of series [4]: Displacement of radiolabeled estradiol ABAD (unknown origin) transfected in HEK293 cells. The series is classed as cell-based, Homo sapiens.
Series [5] is described as follows: Drug uptake in C57BL/6 mouse brain at 10 mg/kg by LC-MS/MS analysis. The settings on record: in vivo. The format is ADME, organism-based.
A short description of series [6]: Cmax in C57BL/6 mouse at 10 mg/kg by LC-MS/MS analysis. The series is classed as ADME, organism-based. Details: dose 10 mg/kg. To be noted: in vivo.

`O=C(C(c1cccc(O)c1)n1cnc2[nH]ncc2c1=S)N1CCCCCC1` (stereo unspecified): in series [1], the pIC50 was 7.29.

Consider `COc1cccc(CN2CCN(C[C@@]3(O)CC[C@@]4(C)[C@@H](CC[C@@H]5[C@@H]4CC[C@]4(C)C(=O)CC[C@@H]54)C3)CC2)c1`, for which the values for the inhibition in series [2] and in series [3] were 4.7% and 30%, respectively. This molecule gave a pIC50 in series [4] of 6.26. With `COc1ccc(NC(=N)Nc2nc3ccc(OC)cc3s2)cc1`, in series [1], the pIC50 was 5.51.

Turning to `O=C(C(c1ccccc1)n1cnc2[nH]ncc2c1=S)N1CCCCCCC1` (stereo unspecified), the pIC50 in series [1] is 7.02. `COc1ccc2nc(N[C@@H](c3ccc(O)cc3)P(=O)(OC)OC)sc2c1`: in series [1], the pIC50 was 4.28. Moreover, in series [5], the Drug uptake was in the range of 4 to 50 ng/mL. Further, the highest level in series [6] (Cmax) was 4.8 ng/mL. `O=C(C(c1ccccc1)n1cnc2[nH]ncc2c1=S)N1CCC(O)(c2ccccc2)CC1` (stereo unspecified) had a pIC50 in series [1] of 7.09.

Take `CCCCC1(O)CCN(C(=O)C(c2ccccc2)n2cnc3[nH]ncc3c2=S)CC1` (stereo unspecified): the pIC50 in series [1] was 7.15.

`O=C([C@H](c1ccccc1)n1cnc2[nH]ncc2c1=S)N1CCCCCC1` gave a pIC50 in series [1] of 7.04. In series [1], `O=C(Nc1ccc(O)c(Cl)c1)Nc1nc2ccc(Cl)cc2s1` had a pIC50 of 5.78. `CCN(CC)C(=O)C(c1ccccc1)n1cnc2[nH]ncc2c1=S` (stereo unspecified) showed a negative logarithm of the IC50 (pIC50) in series [1] of 7.03. `O=C(Nc1ccc(O)c(Cl)c1)Nc1nc2ccc(F)cc2s1` gave a pIC50 in series [1] of 5.72. This pIC50 lies 1.31 log units lower than the previous one. Same read-out and setting: under `O=C(C(c1ccccc1)n1cnc2[nH]ncc2c1=S)N1CCC(O)(c2ccc(Br)cc2)CC1` (stereo unspecified) stands 7.09.

In general, pIC50 refers to the negative decadic logarithm of the IC50, by convention in mol/L. The low end stands for a large IC50, the high end for a small IC50. Broadly, the inhibition is the relative decrease from the control value, in per cent. High values mean a response far below the control, low ones a response near the control. A word on the Cmax: it is the highest concentration seen after dosing.
